Legend:
A1 receptor = molecular target: T1, A1 receptor (Rattus norvegicus, UniProt P25099); assay: Adenosine A1 agonistic action ([35S]GTPγS binding, rat cerebral cortex cell membrane); assay type: biochemical, male Wistar rats; conditions: percentage to 100% of CPA 1 μM
T1 construct: cerebral cortex of male Wistar rats (Charles River Japan, Inc) was extirpated; from tissue; host or cells: cerebral cortex of male Wistar rats, cell membrane preparation
T1 sequence (P25099 1-326): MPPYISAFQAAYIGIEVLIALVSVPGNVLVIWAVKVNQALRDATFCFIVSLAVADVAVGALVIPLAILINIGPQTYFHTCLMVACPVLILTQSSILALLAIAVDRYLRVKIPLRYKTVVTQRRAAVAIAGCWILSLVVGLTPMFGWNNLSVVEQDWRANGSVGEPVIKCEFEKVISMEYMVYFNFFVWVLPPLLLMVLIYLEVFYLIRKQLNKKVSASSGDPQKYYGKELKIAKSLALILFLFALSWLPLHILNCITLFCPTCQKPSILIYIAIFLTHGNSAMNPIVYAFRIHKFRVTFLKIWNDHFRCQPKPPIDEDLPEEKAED
Protocol: (2) Adenosine A1 Agonistic Action
The test was carried out as mentioned below with reference to the method disclosed in the literature (Shryock J. C. et al., Molecular Pharmacology, (1998) 53, 886-893; Ito H. et al., European Journal of Pharmacology, (1999) 365, 309-315). That is, cerebral cortex of male Wistar rats (Charles River Japan, Inc) was extirpated, thereto Tris buffer (50 mM Tris-HCl: pH 7.4) was added, it was homogenized, and then centrifuged (1000×g, 10 min). The supernatant was taken, and centrifuged (20,000×g, 20 min). After removing off the supernatant, the precipitate was suspended in Tris buffer, and recentrifuged (20,000×g, 20 min). After removing off the supernatant, the precipitate was suspended in Tris buffer including 2 units/mL ADA (adenosine deaminase) and reserved at −80° C. until used as a liquid preparation of cell membrane for the following tests.
The above liquid preparation of cell membrane in an amount corresponding to 10 μg of cell membrane was added to Tris-buffer comprising 5 mM of MgCl2, 1 mM of EDTA, 1 mM of dithiothreitol, 100 mM of NaCl, 0.01 mM of GDP (guanosine diphosphate), 5 mg/mL of BSA and 2 units/mL of ADA and the mixture was incubated at 25° C. for 30 minutes. Additionally, [^35S]GTPγS (Guanosine 5′-[γ-thio]triphosphate) (the final concentration: 0.4 nM) and the test compound of the given concentration (which was calculated based on the final concentration of the test compound) were added to the mixture and the resulting mixture was incubated at 25° C. for 45 minutes. The reaction mixture was filtrated through a glass fiber filter (unifilter-96 GF/B, Perkin Elmer Life Sciences) to quench reaction. The filter was washed 5 times with ice-cooled Tris-buffer including 5 mM MgCl2. The radioactivity of the filter was measured with Top count NXT(Perkin Elmer Life Sciences). The nonspecific binding was shown as the binding activity of [^35S]GTPγS in the presence of 0.01 mM GTPγS.
The activity (%, A1 agonistic action) of each test compound was calculated on the basis of the test result ([^35S]GTPγS binding activity) derived with 1 μM of CPA (N^6-Cyclopentyladenosine, Sigma, code C-8031) in control which was counted as 100%.

[1] = molecular target: T2, adenosine A2a receptor (Human) (Homo sapiens, UniProt P29274); assay: c-AMP generating action in cell expressing adenosine A2a receptor; assay type: cell-based; conditions: HEK293 cell expressing human A2a; 100% = c-AMP caused by 1 μM CGS-21680; read-out: A2a Agonistic Action (EC50)
T2 construct: host or cells: HEK293
T2 sequence (P29274 whole entry): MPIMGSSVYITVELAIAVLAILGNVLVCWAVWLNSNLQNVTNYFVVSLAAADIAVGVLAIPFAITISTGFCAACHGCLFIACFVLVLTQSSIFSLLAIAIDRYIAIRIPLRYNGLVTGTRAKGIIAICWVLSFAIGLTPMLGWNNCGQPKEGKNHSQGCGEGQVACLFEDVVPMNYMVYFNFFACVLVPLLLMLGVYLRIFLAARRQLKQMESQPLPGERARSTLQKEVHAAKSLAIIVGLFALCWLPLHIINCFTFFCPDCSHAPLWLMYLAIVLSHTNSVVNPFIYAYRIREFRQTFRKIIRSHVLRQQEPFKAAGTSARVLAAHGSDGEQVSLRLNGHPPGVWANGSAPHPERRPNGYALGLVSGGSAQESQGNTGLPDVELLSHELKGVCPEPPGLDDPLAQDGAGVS
Protocol: (1) c-AMP Generating Action in Cell Expressing Adenosine A2a Receptor
The test was carried out as mentioned below with reference to the method disclosed in the reference (Klotz k. N. et al., Naunyn-Schmiedeberg's Arch. Pharmacol., (1998) 357, 1-9; Shryock J. C. et al., Molecular Pharmacology, (1998) 53, 886-893).
As to the cell, HEK293 cell expressing adenosine A2a receptor (Human) (PerkinElmer Life Sciences, Code No. RBHA2AC) was used.
As to the culture medium, Dulbecco's modified Eagles medium (DMEM) including 10% FBS (Fetal bovine serum) and 1 mM of sodium pyruvate was used.
The cell was placed on 96 well plate (1×10^5/well), and cultured overnight. After removing off the supernatant, to each well, 0.1 ml of DMEM (without FBS) containing 20 mM HEPES, 0.1 mM of IBMX (3-isobutyl-1-methylxanthine) and 2 unit/mL adenosine deaminase was added, and they were incubated at 37° C. for 30 minutes. To each well, 0.1 ml of the culture medium including the DMSO solution of the test compound in an appropriate concentration was added and they were incubated for additional 30 minutes. After removing off the supernatant, the cytolytic solution was added to quench the reaction. The amount of c-AMP in each well was measured by using the c-AMP enzyme immunoassay (EIA) system (Amersham Biosciences, Code No. RPN225).
The same assay was repeated using CGS-21680 (2-p-carboxyethyl)phenethylamino-5′-N-ethylcarboxamidoadenosine hydrochloride, (Sigma, code C141) as reference compound. The amount of resultant c-AMP in the medium, caused by 1 μM of reference compound, was defined to be 100%. A concentration of assayed compound in the medium, producing 50% c-AMP amounts, was calculated to be EC50 value.

[2] = test system: Intraocular Pressure in Rabbit; assay: Measuring test for intraocular pressure in rabbit; assay type: in vivo, Female New Zealand white rabbits; conditions: mean±standard error
Protocol: (3) Measuring Test for Intraocular Pressure in Rabbit
The test compounds were dissolved in 10 mM of phosphate buffer (pH 7.5) (hereinafter, referred to as “vehicle of ophthalmic preparation”), and they were instilled in a given concentration. In addition, the compounds insoluble in that concentration was used as a suspension. Female New Zealand white rabbits (KITAYAMA LABES Co., Ltd.) whose weights were 2.0-4.0 kg were used.
The measurement of the intraocular pressure was carried out using Pneumatonometer (Model 30 Classic, Mentor company) without anesthesia. In addition, before the measurement of the intraocular pressure, the surface anesthesia with 0.4% oxybuprocaine hydrochloride (“Benoxil” 0.4% ophthalmic solution, Santen Pharmaceutical Co., Ltd.) was carried out.
The animals whose intraocular pressure was stable before instillation were selected, and these animals were divided to every 4 animal in each one group, 50 μL of eye drops including each the test compound was administered to one-sided eye and vehicle was administered to contralateral eye as the control eye. The measurement of intraocular pressure was carried out before instillation and after 0.5, 1, 2, 3, 4 and 6 hours from instillation. The effect on the intraocular pressure was shown as the difference from pre-instillation (ΔIOP, mmHg, mean±standard error). The following Tables 14 and 15 show the results of Control Compounds A and B used as 1% suspensions which are the same as in the pharmacological test (1).
The animals were pretreated as mentioned above, and among them animals whose intraocular pressure was stable before instillation were selected, and these animals were divided to every 5 to 8 animal in each one group. Every two group was used for each of the test compounds. The test compound was administered unilaterally to the eye of the test group rabbit and the intraocular pressure was measured. The vehicle was administered unilaterally to the eye of the control group rabbit and the intraocular pressure was measured. As mentioned above, the measurement of intraocular pressure was carried out before instillation and after 0.5, 1, 2, 3, 4 and 6 hours from instillation, and the effect on the intraocular pressure was shown as the difference from pre-instillation (ΔIOP, mmHg, mean±standard error).

[3] = 0.03% ophthalmic solution, rabbit, instillation, 0.5 hr after instillation, difference from pre-instillation
[4] = 0.03% ophthalmic solution, rabbit, instillation, 1 hr after instillation, difference from pre-instillation
[5] = 0.03% ophthalmic solution, rabbit, instillation, 2 hr after instillation, difference from pre-instillation
[6] = 0.03% ophthalmic solution, rabbit, instillation, 3 hr after instillation, difference from pre-instillation
[7] = 0.03% ophthalmic solution, rabbit, instillation, 4 hr after instillation, difference from pre-instillation
[8] = 0.03% ophthalmic solution, rabbit, instillation, 6 hr after instillation, difference from pre-instillation

CC(=O)Nc1ccc(-c2c(C#N)c(N)nc(SCc3ccccn3)c2C#N)cc1 [Comparative Compound B, reference compound]
A1 Agonistic Action (%) (A1 receptor; test compound 10 nM): 20% | A1 Agonistic Action (%) (A1 receptor; test compound 100 nM): 63% | A1 Agonistic Action (%) (A1 receptor; test compound 1 μM): 77% | EC50 [1]: 14.3 nM

CC(=O)Nc1ccc(-c2nc(SCc3cccc(CCC(=O)N4CCC(N5CCCCC5)CC4)n3)nc(N)c2C#N)cc1.Cl [Example 69, N-(4-{6-amino-2-[6-(3-[1,4′]bipiperidinyl-1′-yl-3-oxopropyl)pyridin-2-ylmethylsulfanyl]-5-cyanopyrimidin-4-yl}phenyl)acetamide hydrochloride]
ΔIOP (mmHg) ([2]; 0.01% ophthalmic solution, test group, 0.5 hr): −1.5 ± 1.0 mmHg | ΔIOP (mmHg) ([2]; 0.01% ophthalmic solution, test group, 1 hr): −4.9 ± 0.7 mmHg | ΔIOP (mmHg) ([2]; 0.01% ophthalmic solution, test group, 2 hr): −3.6 ± 0.4 mmHg | ΔIOP (mmHg) ([2]; 0.01% ophthalmic solution, test group, 3 hr): −3.8 ± 0.7 mmHg | ΔIOP (mmHg) ([2]; 0.01% ophthalmic solution, test group, 4 hr): −2.6 ± 1.0 mmHg | ΔIOP (mmHg) ([2]; 0.01% ophthalmic solution, test group, 6 hr): 0.5 ± 0.9 mmHg | EC50 [1]: 7 nM

CC(=O)Nc1ccc(-c2nc(SCc3cccc(C)n3)nc(N)c2C#N)cc1 [Example 2, N-{4-[6-amino-5-cyano-2-(6-methylpyridin-2-ylmethylsulfanyl)pyrimidin-4-yl]phenyl}acetamide]
ΔIOP (mmHg) ([2]; 1% suspended ophthalmic preparation, test group, 0.5 hr): 1.1 ± 0.6 mmHg | ΔIOP (mmHg) ([2]; 1% suspended ophthalmic preparation, test group, 1 hr): −3.1 ± 0.6 mmHg | ΔIOP (mmHg) ([2]; 1% suspended ophthalmic preparation, test group, 2 hr): −4.2 ± 0.7 mmHg | ΔIOP (mmHg) ([2]; 1% suspended ophthalmic preparation, test group, 3 hr): −4.0 ± 0.9 mmHg | ΔIOP (mmHg) ([2]; 1% suspended ophthalmic preparation, test group, 4 hr): −2.0 ± 0.4 mmHg | ΔIOP (mmHg) ([2]; 1% suspended ophthalmic preparation, test group, 6 hr): 0.4 ± 0.9 mmHg | EC50 [1]: 11.9 nM

CC(=O)Nc1ccc(-c2nc(SCc3cccc(CCC(=O)N4CCN(CCN5CCOCC5)CC4)n3)nc(N)c2C#N)cc1.Cl [Example 78, N-{4-[6-amino-5-cyano-2-(6-{3-[4-(2-morpholin-4-ylethyl)piperazin-1-yl]-3-oxopropyl}pyridin-2-ylmethylsulfanyl)pyrimidin-4-yl]phenyl}acetamide hydrochloride]
ΔIOP (mmHg) [2, 3]: 0.6 ± 0.5 mmHg | ΔIOP (mmHg) [2, 4]: −3.3 ± 0.4 mmHg | ΔIOP (mmHg) [2, 5]: −4.4 ± 0.6 mmHg | ΔIOP (mmHg) [2, 6]: −4.3 ± 0.9 mmHg | ΔIOP (mmHg) [2, 7]: −5.4 ± 0.7 mmHg | ΔIOP (mmHg) [2, 8]: −3.2 ± 0.9 mmHg | EC50 [1]: 6 nM

CC(=O)Nc1ccc(-c2nc(SCc3cccc(CCC(=O)N(C)C4CCN(C)CC4)n3)nc(N)c2C#N)cc1.Cl [Example 67, 3-{6-[4-(4-acetylaminophenyl)-6-amino-5-cyanopyrimidin-2-ylsulfanylmethyl]pyridin-2-yl}-N-methyl-N-(1-methylpiperidin-4-yl)propionamide hydrochloride]
ΔIOP (mmHg) [2, 3]: −1.1 ± 1.0 mmHg | ΔIOP (mmHg) [2, 4]: −5.3 ± 0.7 mmHg | ΔIOP (mmHg) [2, 5]: −4.6 ± 0.7 mmHg | ΔIOP (mmHg) [2, 6]: −4.6 ± 0.9 mmHg | ΔIOP (mmHg) [2, 7]: −4.2 ± 0.7 mmHg | ΔIOP (mmHg) [2, 8]: −2.0 ± 0.7 mmHg | EC50 [1]: 6.8 nM

CC(=O)Nc1ccc(-c2nc(SCc3cccc(CCC(=O)NCCN(C)C)n3)nc(N)c2C#N)cc1.Cl [Example 61, 3-{6-[4-(4-acetylaminophenyl)-6-amino-5-cyanopyrimidin-2-ylsulfanylmethyl]pyridin-2-yl}-N-(2-dimethylaminoethyl)-propionamide hydrochloride]
ΔIOP (mmHg) [2, 3]: −0.5 ± 0.4 mmHg | ΔIOP (mmHg) [2, 4]: −4.2 ± 0.6 mmHg | ΔIOP (mmHg) [2, 5]: −4.5 ± 0.7 mmHg | ΔIOP (mmHg) [2, 6]: −4.8 ± 0.7 mmHg | ΔIOP (mmHg) [2, 7]: −4.4 ± 0.7 mmHg | ΔIOP (mmHg) [2, 8]: −1.2 ± 0.8 mmHg | EC50 [1]: 3.4 nM

N#Cc1c(N)nc(SCc2csc(-c3ccc(Cl)cc3)n2)c(C#N)c1-c1ccc(OCCO)cc1 [Comparative Compound A, reference compound]
A1 Agonistic Action (%) (A1 receptor; test compound 10 nM): 14% | A1 Agonistic Action (%) (A1 receptor; test compound 100 nM): 55% | A1 Agonistic Action (%) (A1 receptor; test compound 1 μM): 79% | EC50 [1]: > 1000 nM
